# Laboratory results: patent US5521180A, “Morpholine derivative” (Yamanouchi Pharmaceutical Co., Ltd., priority 1993, dated 1996)
# Structures can show the parent of a compound that is named as a salt. Where two headings read alike, the source gives them in different places.
# How the values were obtained:
# 5-HT reuptake sites = biological target: T1, 5-HT reuptake sites (Rattus norvegicus, UniProt P31652); experiment: [3H]-Citalopram binding to 5-HT reuptake sites (5-HT reuptake inhibition, in vitro); settings: rat cerebral cortex membrane, about 1.0 nM [3H]-Citalopram, 25° C., 60 minutes
# T1 construct: a rat cerebral cortex membrane preparation (about 0.4 mg-protein); from tissue; host or cells: rat cerebral cortex membrane preparation
# T1 sequence (P31652 whole entry): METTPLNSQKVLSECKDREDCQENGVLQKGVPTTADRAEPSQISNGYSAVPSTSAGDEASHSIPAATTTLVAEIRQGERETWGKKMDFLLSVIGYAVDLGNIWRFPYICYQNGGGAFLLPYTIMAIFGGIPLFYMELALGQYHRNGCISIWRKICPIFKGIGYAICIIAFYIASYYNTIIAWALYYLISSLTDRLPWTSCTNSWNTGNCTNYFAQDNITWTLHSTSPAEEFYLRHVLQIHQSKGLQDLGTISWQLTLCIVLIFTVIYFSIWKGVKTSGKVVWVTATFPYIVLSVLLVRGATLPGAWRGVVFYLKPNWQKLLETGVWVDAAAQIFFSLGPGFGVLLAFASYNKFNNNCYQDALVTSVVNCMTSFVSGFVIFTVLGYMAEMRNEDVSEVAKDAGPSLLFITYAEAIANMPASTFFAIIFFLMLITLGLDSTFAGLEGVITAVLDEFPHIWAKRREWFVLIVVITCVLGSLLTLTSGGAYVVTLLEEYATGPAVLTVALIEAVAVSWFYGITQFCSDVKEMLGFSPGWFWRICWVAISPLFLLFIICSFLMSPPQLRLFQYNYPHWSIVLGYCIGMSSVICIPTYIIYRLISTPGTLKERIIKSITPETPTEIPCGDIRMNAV
# Protocol: The 5-HT reuptake inhibitory activity was tested by examining the degree of inhibition of a test compound on binding of [^3 H]-Citalopram to 5-HT reuptake sites.
# The method of D'amato RJ, et al. described in J. Pharmacol. Exp. Ther., 242, 364 (1987) was used. A buffer solution (0.5 ml) containing about 1.0 nM of [^3 H]-Citalopram, a rat cerebral cortex membrane preparation (about 0.4 mg-protein), and a test compound was allowed to react at 25° C. for 60 minutes. Thereafter, the labeled ligand of bound form was separated form the labeled ligand of free form by suction filtration. The amount of the ligand nonspecifically bound to the 5-HT reuptake sites, which was obtained by adding excess non-labeled Fluoxetine (10 μM), was subtracted from the total amount of the bound ligand to obtain the amount of the ligand specifically bound to the 5-HT reuptake sites. The IC50 (the concentration which reduces the amount of the specifically bound ligand by 50%) for each compound was calculated and converted to a dissociation constant (Ki value). in vivo Test: […]
# 5-HT2 receptors = biological target: T2, 5-HT2 receptors (Rattus norvegicus, UniProt P14842); experiment: [3H]-Ketanserin binding, antagonism for 5-HT2 receptors (in vitro); settings: rat cerebral cortex membrane, about 1.0 nM [3H]-Ketanserin, 25° C., 30 minutes; read-out: Antagonism for 5-HT2 Receptor (Ki Value)
# T2 construct: a rat cerebral cortex membrane preparation (about 0.2 mg-protein); from tissue; host or cells: rat cerebral cortex membrane preparation
# T2 sequence (P14842 whole entry): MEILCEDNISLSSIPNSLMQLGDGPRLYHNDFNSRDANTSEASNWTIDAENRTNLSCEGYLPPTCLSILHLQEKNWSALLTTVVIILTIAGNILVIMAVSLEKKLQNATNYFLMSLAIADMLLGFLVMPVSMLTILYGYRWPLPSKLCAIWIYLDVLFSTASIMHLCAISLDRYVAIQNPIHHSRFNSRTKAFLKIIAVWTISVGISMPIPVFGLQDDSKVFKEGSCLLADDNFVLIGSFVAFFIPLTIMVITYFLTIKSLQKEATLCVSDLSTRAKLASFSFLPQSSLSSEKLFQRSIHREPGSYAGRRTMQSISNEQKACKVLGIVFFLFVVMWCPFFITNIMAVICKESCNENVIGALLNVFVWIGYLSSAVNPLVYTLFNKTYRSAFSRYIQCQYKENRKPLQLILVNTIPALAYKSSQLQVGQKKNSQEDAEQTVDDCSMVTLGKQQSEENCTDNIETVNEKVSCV
# Protocol: The degree of inhibition of a test compound on binding of [^3 H]-Ketanserin was tested. The method of Leysen JE, et al. described in Mol. Pharmacol., 21, 301 (1982) was used. A buffer solution (0.5 ml in total) containing about 1.0 nM of [^3 H]-Ketanserin, a rat cerebral cortex membrane preparation (about 0.2 mg-protein), and a test compound was allowed to react at 25° C. for 30 minutes. Thereafter, the bound labeled ligand was separated by suction filtration. The amount of the ligand nonspecifically bound to the 5-HT2 receptors, which was obtained by adding excess non-labeled Metergoline (10 μM), was subtracted from the total amount of the bound ligand to obtain the amount of the ligand specifically bound to 5-HT2 receptors. The IC50 (the concentration at which the amount of the specifically bound ligand is reduced by 50%) for each compound was calculated and converted to a dissociation constant (Ki value).
# 5-HT reuptake = experiment: Enhancement of the action of L-5-hydroxytryptophan in mice (5-HT reuptake inhibition, in vivo); set-up: species or system Male ICR mice; settings: Mus musculus, ip, intraperitoneal, 30 minutes before 90 mg/kg i.v. L-5-hydroxytryptophan
# Protocol: Enhancement of the action of L-5-hydroxytryptophan which is a 5-HT precursor was tested [Naunyn-Schmiedeberg's Archives of Pharmacology, 311, 185-192 (1980)]. Male ICR mice weighing from 30 to 40 g were used. A test drug was intraperitoneally administered, and 30 minutes later 90 mg/kg of L-5-hydroxytryptophan was intravenously injected. […] The test drug was evaluated from the ED50 in manifestation of each action.
# [3H]-dopamine uptake = [3H]-dopamine uptake into corpus striatum synaptosomes; assay type: biochemical, Wistar male rat
# Protocol: (§1) The degree of inhibition of a test compound on uptake of [^3 H]-5-HT, [^3 H]-noradrenaline and [^3 H]-dopamine into synaptosomes was examined. The method of Harada and Maeno described in Biochem. Pharmacol., 28, 2645 (1979) was used. A Wistar male rat was decapitated and the cerebral cortex and the corpus striatum were taken out. The synaptosome fraction of the cerebral cortex was prepared for 5-HT and noradrenaline uptake and that of the corpus striatum was prepared for dopamine uptake. Each synaptosome fraction was incubated at 37° C. for 3 minutes, and [^3 H]-5-HT, [^3 H]-noradrenaline and [^3 H]-dopamine (10^-7 M) was added to the respective fraction. After further incubation for 2 minutes, the system was cooled with ice (0° C.) to stop the reaction. Then, the reaction system was filtered through a Whatman CF/B glass filter, and the radioactivity trapped on the filter was measured with a liquid scintillation counter. The nonspecific activity was obtained by using a reaction system containing no test drug and having been incubated at 0° C. The test drug was evaluated from the IC50 (the concentration at which the uptake of each radioactive ligand reduced by 50%).
# [3H]-5-HT uptake = [3H]-5-HT uptake into cerebral cortex synaptosomes; assay type: biochemical, Wistar male rat; settings: rat cerebral cortex synaptosomes, 10^-7 M ligand, 37° C.; read-out: IC50 in inhibition of [3H]-5-HT uptake
# Protocol: as §1
# [1] = system: [3H]-noradrenaline uptake; experiment: [3H]-noradrenaline uptake into cerebral cortex synaptosomes; assay type: biochemical, Wistar male rat
# Protocol: as §1
# [2] = clinical use, Physician's Desk Reference 1990; cited from earlier work
# α1 receptors = settings: background; causes side effects based thereon; cited from earlier work
# [3] = selectivity, about 30 or more times
compound,measurement,setting,value
"Fc1ccc(OCC2CNCCO2)c2c1CCC2.O=C(O)/C=C/C(=O)O (single isomer, unassigned; (-)) [Example 4, (-)-2-[[(7-fluoro-4-indanyl)oxy]methyl]morpholine fumarate]",Ki,5-HT reuptake sites,21 nM
same,Ki,5-HT2 receptors,100 nM
same,ED50,5-HT reuptake; read-out: ED50 in manifestation of head shaking behavior,7.2 mg/kg
same,ED50,5-HT reuptake; read-out: ED50 in manifestation of hind leg abduction,14.1 mg/kg
same,ED50,5-HT reuptake; read-out: ED50 in manifestation of tremor,6.3 mg/kg
"Fc1ccc(OCC2CNCCO2)c2c1CCC2 (single isomer, unassigned; (-)) [Example 5, (-)-2-[[(7-fluoro-4-indanyl)oxy]methyl]morpholine hydrochloride]",Ki,5-HT reuptake sites,21 nM
same,Ki,5-HT2 receptors,100 nM
"Fc1ccc(OCC2CNCCO2)c2c1CCC2 (stereo not drawn) [Example 1, 2-[[(7-fluoro-4-indanyl)oxy]methyl]morpholine]",IC50,"[3H]-dopamine uptake; rat corpus striatum synaptosomes, 10^-7 M ligand, 37° C., read-out: IC50 in inhibition of [3H]-dopamine uptake",≥ 10000 nM
same,[3H]-5-HT uptake inhibitory activity relative to [3H]-dopamine uptake inhibitory activity,[3H]-dopamine uptake; [3],≥ 30 times
same,IC50,[3H]-5-HT uptake,227 nM
same,IC50,"[1]; rat cerebral cortex synaptosomes, 10^-7 M ligand, 37° C., read-out: IC50 in inhibition of [3H]-noradrenaline uptake",6720 nM
same,[3H]-5-HT uptake inhibitory activity relative to [3H]-noradrenaline uptake inhibitory activity,[1]; [3],≥ 30 times
CNCCC(Oc1ccc(C(F)(F)F)cc1)c1ccccc1 (stereo not drawn) [Fluoxetine],side effects during the course of therapy,[2],induces anxiety or insomnia
O=c1n(CCCN2CCN(c3cccc(Cl)c3)CC2)nc2ccccn12 [Trazodone],affinity to α1 receptors (in words),α1 receptors,exhibits affinity to α1receptors
"c1cc2c(c(OCC3CNCCO3)c1)CCC2 (stereo not drawn) [compound 1, 2-[[(4-Indanyl)oxy]methyl]morpholine, reference compound]",Ki,5-HT reuptake sites,52 nM
same,Ki,5-HT2 receptors,1030 nM
"C1=Cc2cccc(OCC3CNCCO3)c2C1 (stereo not drawn) [compound 2, 2-[[(7-Indenyl)oxy]methyl]morpholine, reference compound]",Ki,5-HT reuptake sites,22 nM
same,Ki,5-HT2 receptors,4670 nM
